Test results reported in ChEMBL document CHEMBL1201862, “PubChem BioAssay data set” (2004).
Active and inactive are the calls of the source. Cut-off read from the data, not from the text of the source, for most assays here: actives have a measured EC50 and inactives only a lower limit.

Assays:
[1] = cells; format: functional
[2] = target: T1, Cytochrome P450 1A2 (Homo sapiens, UniProt P05177);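 note: PubChem cytochrome P450 panel assay, CYP1A2 panel member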
T1 sequence (P05177 whole entry): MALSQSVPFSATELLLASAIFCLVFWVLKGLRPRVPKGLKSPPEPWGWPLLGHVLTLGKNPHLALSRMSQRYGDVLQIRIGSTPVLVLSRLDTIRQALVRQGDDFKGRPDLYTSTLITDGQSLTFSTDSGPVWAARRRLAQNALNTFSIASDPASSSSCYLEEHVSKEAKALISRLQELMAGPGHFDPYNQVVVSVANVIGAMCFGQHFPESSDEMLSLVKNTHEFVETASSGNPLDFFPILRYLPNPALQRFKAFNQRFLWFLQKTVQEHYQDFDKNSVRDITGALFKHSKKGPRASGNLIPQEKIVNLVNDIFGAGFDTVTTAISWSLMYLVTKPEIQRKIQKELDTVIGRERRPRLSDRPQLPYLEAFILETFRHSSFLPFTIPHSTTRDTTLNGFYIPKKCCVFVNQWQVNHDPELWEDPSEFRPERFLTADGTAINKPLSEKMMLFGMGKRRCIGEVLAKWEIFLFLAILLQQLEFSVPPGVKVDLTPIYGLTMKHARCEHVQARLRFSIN

[3] = target: T2, Streptokinase A (Streptococcus pyogenes serotype M1, UniProt P10520); assay: viability-normalized secreted streptokinase activity reduction – plasminogen activation absorbance, OD405, dose response (AID 1914); format: functional, Streptococcus pyogenes M1 GAS;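 note: secreted streptokinase activity via plasminogen activation per viability signal from cell pellet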
T2 sequence (P10520 whole entry): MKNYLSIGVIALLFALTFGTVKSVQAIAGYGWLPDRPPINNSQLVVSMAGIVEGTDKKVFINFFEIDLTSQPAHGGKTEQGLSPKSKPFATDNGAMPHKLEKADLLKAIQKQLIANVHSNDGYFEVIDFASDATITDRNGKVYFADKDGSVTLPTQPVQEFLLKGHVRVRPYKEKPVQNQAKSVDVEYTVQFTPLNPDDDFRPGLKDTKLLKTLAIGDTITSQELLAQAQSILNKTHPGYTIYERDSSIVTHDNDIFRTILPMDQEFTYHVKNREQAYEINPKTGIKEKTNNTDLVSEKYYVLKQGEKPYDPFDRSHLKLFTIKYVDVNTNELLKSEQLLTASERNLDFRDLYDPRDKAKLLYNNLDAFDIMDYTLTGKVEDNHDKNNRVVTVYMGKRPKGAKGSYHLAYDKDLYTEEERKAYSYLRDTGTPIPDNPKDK

[4] = test system: Streptococcus; assay: GAS UMAA2166 growth inhibition – luminescence, BacTiterGlo, counter-screen for streptokinase expression inhibitor project, dose response (AID 1915); format: functional, organism-based;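 note: potency for reduction of bacterial viability or growth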
[5] = target: T3, Replicative DNA helicase DnaB (Mycobacterium tuberculosis, UniProt P9WMR3); assay: DnaB intein splicing inhibitors, dose response, biochemical, cell-free fluorescence (AID 449749); format: functional
T3 sequence (P9WMR3 whole entry): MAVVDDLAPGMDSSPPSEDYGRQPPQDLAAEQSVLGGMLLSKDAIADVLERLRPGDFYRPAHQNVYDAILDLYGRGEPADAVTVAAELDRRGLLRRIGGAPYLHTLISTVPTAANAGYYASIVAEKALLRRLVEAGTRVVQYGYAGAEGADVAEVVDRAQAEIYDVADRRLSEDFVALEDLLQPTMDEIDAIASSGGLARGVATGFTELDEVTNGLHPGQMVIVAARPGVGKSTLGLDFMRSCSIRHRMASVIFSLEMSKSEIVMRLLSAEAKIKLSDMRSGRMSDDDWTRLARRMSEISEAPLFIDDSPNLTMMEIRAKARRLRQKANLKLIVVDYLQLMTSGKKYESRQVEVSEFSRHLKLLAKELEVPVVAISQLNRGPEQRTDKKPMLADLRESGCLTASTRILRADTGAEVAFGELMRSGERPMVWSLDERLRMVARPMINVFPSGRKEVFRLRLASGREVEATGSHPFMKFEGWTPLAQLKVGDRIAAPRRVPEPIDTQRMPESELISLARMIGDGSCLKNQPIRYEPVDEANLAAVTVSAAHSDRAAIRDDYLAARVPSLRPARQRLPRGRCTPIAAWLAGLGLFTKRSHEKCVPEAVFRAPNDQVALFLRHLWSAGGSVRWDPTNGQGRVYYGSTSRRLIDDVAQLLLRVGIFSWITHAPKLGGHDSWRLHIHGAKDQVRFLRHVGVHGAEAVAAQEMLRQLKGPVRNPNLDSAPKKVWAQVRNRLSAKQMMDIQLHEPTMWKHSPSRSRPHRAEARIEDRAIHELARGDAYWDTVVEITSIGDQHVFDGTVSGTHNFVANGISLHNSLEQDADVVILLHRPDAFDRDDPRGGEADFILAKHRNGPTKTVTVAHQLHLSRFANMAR

[6] = target: T4, Protein RecA (Mycobacterium tuberculosis, UniProt P9WHJ3); assay: Fluorescence Cell-Free Homogeneous Dose Retest to Identify Inhibitors of RecA-Intein Splicing Activity. [Related pubchem assays (depositor defined):AID2097, AID2223, AID489010, AID492950]; format: functional
T4 sequence (P9WHJ3 whole entry): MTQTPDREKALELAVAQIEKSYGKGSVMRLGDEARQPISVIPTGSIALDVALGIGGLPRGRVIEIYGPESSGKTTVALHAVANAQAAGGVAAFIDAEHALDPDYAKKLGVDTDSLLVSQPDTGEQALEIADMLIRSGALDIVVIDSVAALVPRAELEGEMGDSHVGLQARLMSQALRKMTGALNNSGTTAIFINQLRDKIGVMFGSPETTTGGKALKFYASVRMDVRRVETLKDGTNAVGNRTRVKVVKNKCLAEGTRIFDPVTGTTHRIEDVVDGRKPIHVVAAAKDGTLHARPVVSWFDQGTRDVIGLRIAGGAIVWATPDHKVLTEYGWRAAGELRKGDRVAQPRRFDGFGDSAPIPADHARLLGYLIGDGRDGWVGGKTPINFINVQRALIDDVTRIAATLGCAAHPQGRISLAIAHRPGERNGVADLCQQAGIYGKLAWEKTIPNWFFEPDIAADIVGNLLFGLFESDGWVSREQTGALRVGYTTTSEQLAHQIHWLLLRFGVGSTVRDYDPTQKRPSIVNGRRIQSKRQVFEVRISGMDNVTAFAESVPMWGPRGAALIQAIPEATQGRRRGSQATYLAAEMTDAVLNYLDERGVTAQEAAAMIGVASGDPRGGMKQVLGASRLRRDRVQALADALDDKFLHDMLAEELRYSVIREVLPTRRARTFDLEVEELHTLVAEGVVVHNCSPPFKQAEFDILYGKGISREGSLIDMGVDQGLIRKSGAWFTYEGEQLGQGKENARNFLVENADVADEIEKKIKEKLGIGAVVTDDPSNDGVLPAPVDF

[7] = target: Cytochrome P450 3A4 (Homo sapiens, UniProt P08684);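 note: CYP3A4 tested as one member of a cytochrome P450 panel screen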
[8] = target: Cytochrome P450 2D6 (Homo sapiens, UniProt P10635);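 note: CYP2D6 member of a cytochrome P450 panel assay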
[9] = test system: Streptococcus sp. 'group A'; assay: Streptococcus pyogenes SK(-)GAS viability under kanamycin – luminescence, BacTiterGlo, confirmation, counter-screen for streptokinase expression inhibitor project, dose response (AID 1900); format: functional, organism-based
[10] = Luminescence Cell-Based Dose Confirmation HTS to Identify Activators of 5'UTR Stem-Loop Driven Alpha-Synuclein mRNA Translation in H4 Neuroglioblastoma Cells. [Related pubchem assays: 1829 (Project Summary), 1814 (Primary HTS)]; format: functional
[11] = test system: H4; assay: Luminescence Cell-Based Dose Response HTS to Identify Activators of 5'UTR Stem-Loop Driven Prion Protein mRNA Translation in H4 Neuroglioblastoma Cells. [Related pubchem assays: 1829 (Project Summary), 1814 (Primary HTS)]; format: functional; conditions: Homo sapiens
[12] = Luminescence Cell-Based Dose Response HTS to Identify Activators of Luciferase Translation or Activity in H4 […] Cells. [Related pubchem assays: 1829 (Project Summary), 1814 (Primary HTS)]; format: functional
[13] = target: T5, Heat shock factor protein 1 (Mus musculus, UniProt P38532); assay: decrease of HSF1-responsive luciferase luminescence – cell-based, NIH3T3, dose retest, confirmation (AID 2382); format: functional;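 note: NIH3T3 fibroblasts with HSF1-driven luciferase reporter stressed by proteasome inhibitor MG132; luminescence from HSF1-driven luciferase expression after 8 hours of MG132 stress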
T5 sequence (P38532 whole entry): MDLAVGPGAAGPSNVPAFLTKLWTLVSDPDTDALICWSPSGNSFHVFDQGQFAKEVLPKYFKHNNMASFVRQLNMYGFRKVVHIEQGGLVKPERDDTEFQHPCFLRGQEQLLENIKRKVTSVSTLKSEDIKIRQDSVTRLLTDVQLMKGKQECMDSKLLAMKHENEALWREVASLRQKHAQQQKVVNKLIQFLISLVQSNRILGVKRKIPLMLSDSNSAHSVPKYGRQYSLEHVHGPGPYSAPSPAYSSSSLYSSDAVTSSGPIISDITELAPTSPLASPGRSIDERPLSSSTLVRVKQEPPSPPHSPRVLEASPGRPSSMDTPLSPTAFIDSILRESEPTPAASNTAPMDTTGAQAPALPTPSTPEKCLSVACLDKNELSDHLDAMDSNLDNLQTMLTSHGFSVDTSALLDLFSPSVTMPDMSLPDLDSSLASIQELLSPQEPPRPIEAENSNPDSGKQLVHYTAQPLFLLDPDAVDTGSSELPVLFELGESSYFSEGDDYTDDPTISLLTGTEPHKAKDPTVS

Chain of Cytochrome P450 3A4 (P08684 whole entry): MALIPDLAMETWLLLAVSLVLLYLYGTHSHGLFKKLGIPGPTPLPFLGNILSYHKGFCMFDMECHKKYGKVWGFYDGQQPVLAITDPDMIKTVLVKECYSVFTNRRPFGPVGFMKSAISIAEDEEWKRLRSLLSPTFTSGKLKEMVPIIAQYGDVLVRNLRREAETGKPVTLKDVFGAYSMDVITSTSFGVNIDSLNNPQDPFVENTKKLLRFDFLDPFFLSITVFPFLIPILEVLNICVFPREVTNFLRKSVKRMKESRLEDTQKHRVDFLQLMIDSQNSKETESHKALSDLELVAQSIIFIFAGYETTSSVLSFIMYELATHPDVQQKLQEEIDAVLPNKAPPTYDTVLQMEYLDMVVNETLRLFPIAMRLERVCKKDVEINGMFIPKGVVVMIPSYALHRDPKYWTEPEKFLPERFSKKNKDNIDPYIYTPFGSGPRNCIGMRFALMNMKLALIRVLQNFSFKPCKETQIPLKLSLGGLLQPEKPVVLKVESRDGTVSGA
Chain of Cytochrome P450 2D6 (P10635 whole entry): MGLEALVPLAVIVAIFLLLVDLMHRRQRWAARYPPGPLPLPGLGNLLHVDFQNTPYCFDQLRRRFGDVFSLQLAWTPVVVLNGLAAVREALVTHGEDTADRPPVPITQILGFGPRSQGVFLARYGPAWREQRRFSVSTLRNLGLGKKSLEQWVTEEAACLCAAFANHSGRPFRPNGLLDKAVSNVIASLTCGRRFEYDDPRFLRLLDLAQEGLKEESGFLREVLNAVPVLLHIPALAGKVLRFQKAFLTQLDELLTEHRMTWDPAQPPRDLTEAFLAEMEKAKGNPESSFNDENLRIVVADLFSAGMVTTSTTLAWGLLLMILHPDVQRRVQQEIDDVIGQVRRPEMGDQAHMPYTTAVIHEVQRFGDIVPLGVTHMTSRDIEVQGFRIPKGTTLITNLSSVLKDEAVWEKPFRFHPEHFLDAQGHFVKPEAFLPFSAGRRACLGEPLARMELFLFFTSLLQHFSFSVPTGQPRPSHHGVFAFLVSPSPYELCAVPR

For Cc1ccnc(NC(=O)CCc2c[nH]c3ccccc23)c1, the IC50 [1] was 21.6 µM (active).
In the case of CC(=O)N1CCC2(CCN(Cc3cc(C(F)(F)F)cc(C(F)(F)F)c3)CC2)CC1, the AC50 [2] is reported as 15.8 µM (inconclusive).
In the case of Cc1nn(C(=O)c2cccnc2)c(C)c1Sc1ccc(Br)cc1, the EC50 [3] is reported as > 150 µM (not active), the EC50 [4] is reported as > 150 µM (not active) and the AC50 [5] is reported as 4.61 µM (active). The EC50 [6] was 18.7 µM (active), the AC50 [7] was 15.8 µM (inconclusive) and the AC50 [8] was 25.1 µM (inconclusive). For the same compound, the EC50 [9] was 11.1 µM (active).
In the case of O=C(c1ccc(F)cc1)c1ccc(-c2ccc(F)cc2)nc1, the EC50 [10] is reported as 4.41 µM (active), the EC50 [11] is reported as 11.6 µM (active) and the EC50 [12] is reported as 11.9 µM (active).
With O=C(Nc1cc(Cl)ccc1-n1cncn1)c1ccc([N+](=O)[O-])o1 the EC50 [10] was > 120 µM (not active), the EC50 [3] was 56.7 µM (inconclusive) and the EC50 [11] was > 120 µM (not active). The EC50 [4] was > 150 µM (not active), the EC50 [12] was > 120 µM (not active) and the EC50 [9] was 11.7 µM (active).
With CCOc1ccc(-c2nc3ccccc3c(=O)o2)cc1 the IC50 [1] was 7.01 µM (active).
With CC(C)(C)C(=O)Nc1ccc(N=Nc2ccccc2)cc1 the AC50 [5] was 4.35 µM (active), the EC50 [6] was 2.85 µM (active) and the EC50 [13] was < 0.16 µM (active).
In the case of O=C(NNC(=O)c1ccccc1F)c1ccc(-c2ccc(Cl)cc2)o1, the IC50 [1] is reported as 8.21 µM (active).
In the case of O=c1c2ccccc2c2ccccc2c(=O)n1-c1cc2c3ccccc3ccc2c2ccccc12, the AC50 [2] is reported as 6.31 µM (inconclusive).
For O=C(CSCc1ccccc1)Nc1cccc(C(=O)Nc2ccccc2C(=O)O)c1, the AC50 [2] was 15.8 µM (inconclusive).
For O=C(c1ccccc1)[C@H]1[C@H](c2ccccc2)[C@@]2(N=C(c3ccccc3)OC2=O)C2c3ccccc3C=NN21 (stereo partly drawn), the EC50 [10] was 6.71 µM (active), the EC50 [11] was > 120 µM (not active) and the EC50 [12] was 19 µM (active).
In the case of O=C(Nc1c(F)cc(F)cc1Br)c1cc(-c2ccccc2)on1, the IC50 [1] is reported as 4 µM (active).
For CC(C)N(Cc1nccn1C)C(=O)CCc1nnc(CCCc2ccccc2)o1, the EC50 [10] was 12.7 µM (active), the EC50 [11] was 31.2 µM (active) and the EC50 [12] was 15.5 µM (active).
In the case of O=C1NCCCC1C(=O)Nc1ccccc1C(F)(F)F (stereo not drawn), the AC50 [2] is reported as 39.8 µM (inconclusive).
In the case of CCc1ccc(N2CCN(CCNC(=O)Nc3ccc(OC)cc3)CC2)cc1, the IC50 [1] is reported as 38.2 µM (active).
For Cc1ccc(NC(=O)c2ocnc2C)cc1Cl, the EC50 [10] was 0.145 µM (active), the EC50 [11] was 6.44 µM (active) and the EC50 [12] was 1.04 µM (active).
For O=[N+]([O-])c1ccc(/C=C2\CCC(C3=CCCC3)=C2N2CCOCC2)cc1, the EC50 [10] was > 120 µM (not active), the EC50 [11] was > 120 µM (not active) and the EC50 [12] was > 120 µM (not active).
With CNC(=O)COC(=O)c1ccc(-c2nc3ccccc3s2)s1 the EC50 [11] was 56.3 µM (active), the IC50 [1] was 5.82 µM (active) and the EC50 [12] was 0.764 µM (active).
For CC(C)NC(=O)c1[nH]nc2c1CCc1ccccc1-2, the EC50 [10] was 5.26 µM (active), the EC50 [11] was 8.82 µM (active) and the EC50 [12] was 56 µM (active).
In the case of CSc1ccc(/C=C(/NC(=O)c2ccccc2)C(=O)N2CCN(C)CC2)cc1, the EC50 [10] is reported as > 120 µM (not active), the EC50 [11] is reported as > 60 µM (not active) and the EC50 [12] is reported as > 120 µM (not active).
For S=C(Nc1ccc(Br)cc1Cl)N1CCC2(CC1)OCCO2, the EC50 [10] was > 120 µM (not active), the EC50 [11] was 16 µM (active) and the EC50 [12] was 23.5 µM (active).
In the case of CCCn1c(N)c(Sc2ccc(C)cc2)c(=O)n(CCC)c1=O, the EC50 [10] is reported as > 120 µM (not active), the EC50 [11] is reported as > 120 µM (not active) and the EC50 [12] is reported as > 120 µM (not active).
For c1ccc(CN2CC[C@@H](CNc3ncnc4ccccc34)C2)cc1, the AC50 [2] was 6.31 µM (inconclusive).
With C(=N\Nc1nc(-c2ccccc2)cs1)/c1cccnc1 the EC50 [10] was 0.198 µM (active), the EC50 [11] was 44.1 µM (active) and the EC50 [12] was 33.3 µM (active).
With COc1cc(/C=N/n2c(C)nnc2S)ccc1OCc1ccc(F)cc1 the EC50 [10] was > 120 µM (not active), the EC50 [11] was 32 µM (active) and the EC50 [12] was > 120 µM (not active).
For N[C@H](C(=O)O)[C@H](OCc1ccccc1)C(=O)O, the AC50 [2] was 31.6 µM (inconclusive).
